Structures are written as SMILES.

Consider 29 compounds from ChEMBL document CHEMBL3769302, “2-Oxo-1,2-dihydropyridinyl-3-yl amide-based GPa inhibitors: Design, synthesis and structure-activity relationship study” (Eur J Med Chem, 2016).

In assay [1] the target is T1, Glycogen phosphorylase, muscle form (Oryctolagus cuniculus, UniProt P00489).
T1 sequence (P00489 whole entry): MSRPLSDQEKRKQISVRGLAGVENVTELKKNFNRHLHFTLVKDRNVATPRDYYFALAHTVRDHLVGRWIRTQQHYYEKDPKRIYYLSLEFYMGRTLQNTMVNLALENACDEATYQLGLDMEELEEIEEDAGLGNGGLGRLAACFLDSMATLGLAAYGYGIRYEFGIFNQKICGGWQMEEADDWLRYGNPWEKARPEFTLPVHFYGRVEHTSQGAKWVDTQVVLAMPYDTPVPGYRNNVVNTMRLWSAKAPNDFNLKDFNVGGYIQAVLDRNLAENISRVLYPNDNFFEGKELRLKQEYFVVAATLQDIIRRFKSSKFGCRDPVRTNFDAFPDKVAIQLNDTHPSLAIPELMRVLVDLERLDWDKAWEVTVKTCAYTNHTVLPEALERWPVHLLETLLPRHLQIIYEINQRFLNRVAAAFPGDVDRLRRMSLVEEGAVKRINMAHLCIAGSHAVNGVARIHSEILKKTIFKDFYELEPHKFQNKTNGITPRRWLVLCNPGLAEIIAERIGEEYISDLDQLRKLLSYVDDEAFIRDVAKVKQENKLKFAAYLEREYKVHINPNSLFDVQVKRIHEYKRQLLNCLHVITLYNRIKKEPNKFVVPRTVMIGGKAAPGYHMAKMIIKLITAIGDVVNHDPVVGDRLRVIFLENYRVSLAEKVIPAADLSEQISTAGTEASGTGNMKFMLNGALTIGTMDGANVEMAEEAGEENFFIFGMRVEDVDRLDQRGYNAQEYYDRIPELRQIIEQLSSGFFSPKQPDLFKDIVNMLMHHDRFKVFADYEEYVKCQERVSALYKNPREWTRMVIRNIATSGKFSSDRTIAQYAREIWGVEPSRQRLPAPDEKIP
Kind of assay: Inhibition of rabbit muscle glycogen phosphorylase-a assessed as formation of inorganic phosphate from glucose-1-phosphate by colorimetry.

Assay [2] addresses T2, Glycogen phosphorylase, muscle form (Oryctolagus cuniculus) (UniProt P00489).
T2 sequence (whole entry): T1 sequence (P00489 whole entry)
Kind of assay: Inhibition of rabbit muscle glycogen phosphorylase-a assessed as formation of inorganic phosphate from glucose-1-phosphate at 11.1 uM by colorimetry.

The target of assay [3] is T2, Glycogen phosphorylase, muscle form (Oryctolagus cuniculus). The assay can be described thus: Inhibition of rabbit muscle glycogen phosphorylase-a assessed as formation of inorganic phosphate from glucose-1-phosphate at 222 uM by colorimetry.
For assay [4] the target is unchanged. The assay can be described thus: Inhibition of rabbit muscle glycogen phosphorylase-a assessed as formation of inorganic phosphate from glucose-1-phosphate at 20 uM by colorimetry.
Assay [5] has the same target. Kind of assay: Inhibition of rabbit muscle glycogen phosphorylase-a assessed as formation of inorganic phosphate from glucose-1-phosphate at 90 uM by colorimetry.
Assay [6] has the same target. The assay can be described thus: Inhibition of rabbit muscle glycogen phosphorylase-a assessed as formation of inorganic phosphate from glucose-1-phosphate at 444 uM by colorimetry.
Assay [7] has the same target. The assay can be described thus: Inhibition of rabbit muscle glycogen phosphorylase-a assessed as formation of inorganic phosphate from glucose-1-phosphate at 44 uM by colorimetry.
For assay [8] the target is unchanged. Kind of assay: Inhibition of rabbit muscle glycogen phosphorylase-a assessed as formation of inorganic phosphate from glucose-1-phosphate at 440 uM by colorimetry.
The target is the same in assay [9]. Kind of assay: Inhibition of rabbit muscle glycogen phosphorylase-a assessed as formation of inorganic phosphate from glucose-1-phosphate at 4.4 mM by colorimetry.

`O=C(Cn1cccc(NCc2ccccc2Cl)c1=O)Nc1ccc(Cl)c(Cl)c1`: in [1] (read-out: IC50), the IC50 (commonly the concentration at which inhibition is half-maximal) was found to be 57 µM.
In the case of `O=C(Cn1cccc(NCc2ccc([N+](=O)[O-])cc2)c1=O)NCc1ccc(Cl)c(Cl)c1`, the inhibition (usually the drop in the measured response relative to a control, in per cent) in assay [2] is 100%. Further, in assay [1] (read-out: IC50(app)), the IC50 stood at 2.5 µM.
On to `O=C(Cn1cccc(NCc2ccccc2)c1=O)Nc1ccccc1`, for which the IC50 entry in assay [1] was “Not Active”.
On to `O=C(Cn1cccc(NCc2ccccc2Cl)c1=O)NCc1ccc(Cl)c(Cl)c1`, for which, in [3], the inhibition was determined as 77%. In addition, the IC50 in assay [1] (read-out: IC50) is 18.5 µM.
For `O=C(Cn1cccc(NCc2cccc(Cl)c2)c1=O)Nc1ccc(Cl)c(Cl)c1`, in assay [4], the inhibition is 33%.
On to `O=C(Cn1cccc(NCc2ccccc2)c1=O)Nc1ccc(Cl)c(Cl)c1`, for which, in [5], the inhibition came out at 41%.
Take `O=C(Cn1cccc(NCc2ccccc2)c1=O)NCCc1ccc(Cl)c(Cl)c1`: in [6], the inhibition came to 80%.
Regarding `O=C(Cn1cccc(NCc2ccc(Cl)c(Cl)c2)c1=O)NCCc1ccc(Cl)cc1Cl`, the inhibition in assay [7] came to 22%.
As to `O=C(Cn1cccc(NCc2ccc(Cl)c(Cl)c2)c1=O)NCCc1ccccc1`, in [1] (read-out: IC50), the IC50 is 31.3 µM.
Turning to `O=C(Cn1cccc(NCc2ccc(Cl)c(Cl)c2)c1=O)NCc1ccccc1`, the IC50 in assay [1] (read-out: IC50) stood at 10.2 µM.
With `O=C(Cn1cccc(NCc2ccc(Cl)c(Cl)c2)c1=O)NCCc1ccc(Cl)c(Cl)c1`, the inhibition in [2] is 98%. Moreover, in assay [1] (read-out: IC50(app)), the concentration for half-maximal inhibition (IC50) was 22.5 µM.
Turning to `O=C(Cn1cccc(NCc2ccc(Cl)c(Cl)c2)c1=O)Nc1ccc(Cl)c(Cl)c1`, in [3], the inhibition turned out to be 98%. Further, the IC50 in [1] (read-out: IC50(app)) came out at 18.5 µM.
`O=C(Cn1cccc(NCCCc2ccccc2)c1=O)NCCc1ccc(Cl)c(Cl)c1`: the IC50 in assay [1] (read-out: IC50) is 68 µM.
`O=C(Cn1cccc(NCc2cccc(Cl)c2)c1=O)NCc1ccc(Cl)c(Cl)c1`: the IC50 in assay [1] (read-out: IC50) turned out to be 5.66 µM.
For the compound `Cc1ccc(S(=O)(=O)n2cccc2CNc2cccn(CC(=O)NCc3ccc(Cl)c(Cl)c3)c2=O)cc1`, the IC50 in assay [1] (read-out: IC50) worked out at 3.4 µM.
For `O=C(Cn1cccc(NCc2ccccn2)c1=O)NCc1ccc(Cl)c(Cl)c1`, in [1], the IC50 result was “Not Active”.
With `CCCNC(=O)Cn1cccc(NCc2ccc(Cl)c(Cl)c2)c1=O`, in [3], the inhibition was 67%.
Consider `O=C(Cn1cccc(NC(=O)c2ccccc2)c1=O)Nc1ccc(Cl)c(Cl)c1`, for which the inhibition in assay [3] turned out to be 100%. In addition, the IC50 in assay [1] (read-out: IC50(app)) is 13 µM.
On to `CCOC(=O)Cn1cccc(NCc2ccc(Cl)cc2)c1=O`, for which, in assay [3], the inhibition was determined as 75%.
In the case of `CCOC(=O)Cn1cccc(NCc2cccn2S(=O)(=O)c2ccc(C)cc2)c1=O`, in assay [3], the inhibition was 75%.
Consider `CCOC(=O)Cn1cccc(NCc2ccc(Cl)c(Cl)c2)c1=O`, for which the inhibition in assay [3] amounted to 43%.
Turning to `O=C(Cn1cccc(NCc2cccs2)c1=O)NCc1ccc(Cl)c(Cl)c1`, the inhibition in assay [3] was determined as 73%. In addition, in assay [1] (read-out: IC50(app)), the IC50 was found to be 19.5 µM.
For the compound `O=C(Cn1cccc(NCc2ccccc2)c1=O)NCCc1ccc(Cl)cc1Cl`, the inhibition in [7] amounted to 93%.
For the compound `O=C(Cn1cccc(NCc2ccc(Cl)cc2)c1=O)NCc1ccc(Cl)c(Cl)c1`, the IC50 in assay [1] (read-out: IC50) is 2.1 µM.
Turning to `Cc1ccc(S(=O)(=O)Nc2cccn(CC(=O)NCc3ccc(Cl)c(Cl)c3)c2=O)cc1`, the inhibition in assay [3] was 37%.
As for `O=C(Cn1cccc(NCc2ccc(Cl)c(Cl)c2)c1=O)NCc1ccc(Cl)c(Cl)c1`, the IC50 in [1] (read-out: IC50) amounted to 1.92 µM.
Regarding `O=C(Cn1cccc(NCc2ccc(Cl)c(Cl)c2)c1=O)Nc1ccccc1`, in [8], the inhibition was 19%.
On to `O=C(Cn1cccc(NCc2ccc(Cl)cc2)c1=O)Nc1ccc(Cl)c(Cl)c1`, for which the IC50 result in assay [1] is reported as “Not Active”.
Consider `O=C(Cn1cccc(NCCCc2ccccc2)c1=O)NCc1ccc(Cl)c(Cl)c1`, for which the inhibition in assay [9] worked out at 33%.
